We go through 67 compounds from the OPERA property sets (Mansouri et al. 2018).

Values after ≈ are worked out from the molar mass of the structure shown.

Details in the first data set: not given
The logP is the decadic logarithm of the partition coefficient of the neutral form, usually between octanol and water. High values mean higher lipophilicity, low ones lower lipophilicity. `COCc1ccc(COC)cc1` had a logP of 1.28.
On the same count and under the same terms, next, `Cc1cn([C@H]2C[C@H](N=[N+]=[N-])[C@@H](CO)O2)c(=O)[nH]c1=S`: 1.07.
`S=C1NCCN1`: the logP is -0.66.
On to `CC(C)NCC(O)c1ccc(NS(C)(=O)=O)cc1` (centres undefined), for which the logP was determined as 0.24.
With `CCCCC(=O)Oc1ccc(CC(N)C(=O)O)cc1` (centres undefined), the logP was 0.07.
Take `CCNc1nc(NC(C)(C)C)nc(OC)n1`: the logP was 3.1.
Compound `CCCN1CCCC1CNC(=O)c1cc(S(N)(=O)=O)ccc1OC` (centres undefined) came in with a lipophilicity (logP) of 2.16.
The same measure, in the same setting: next, `CCN(O)CC`: -0.17; `CCCCCCc1ccc(N)cc1`: 4.21; `CC(=O)OCn1ncc2c(O)ncnc21`: -0.35.
As for `N#CCCN(N)c1nc2ccccc2o1`, the logP turned out to be 0.9.
The solubility is how much of the substance goes into solution per volume. The low end stands for little dissolved substance, the high end for much dissolved substance. Compound `O=[N+]([O-])c1cccc(O)c1` had a solubility of 97.1 mM (≈ 13500 µg/mL).
Compound `Cc1cc(Cl)c(Cl)cc1Cc1ccc(Cl)cc1Cl` registered a lipophilicity (logP) of 7.41.
The same measure, in the same setting: next, `CC1=NS(=O)(=O)c2cccnc2N1`: -0.25; `c1ccc2c(c1)ccc1c3ccccc3ccc21`: 5.81.
On the same count and under the same terms, as for `CCCCOCCOCCCC`, the figure is 2.48.

Staying with this data set, now noted: 20 °C.
Compound `CCc1ccc(C)nc1` registered a solubility of 99 mM (≈ 12000 µg/mL).
Same read-out and setting: next, `CCCC(CCC)C(=O)O`: 13.9 mM (≈ 2000 µg/mL); `O=C(O)c1ccccn1`: 7800 mM (≈ 960000 µg/mL); `CC(C)(C)C1CCC(O)CC1` (centres undefined): 0.64 mM (≈ 100 µg/mL).
The same measure, in the same setting: next, `Oc1cc(O)c2ccccc2c1`: 11.2 mM (≈ 1800 µg/mL); `CCC#CC(C)O` (centres undefined): 387 mM (≈ 38000 µg/mL).
`N=C(N)N` gave a solubility of 31.1 mM (≈ 1840 µg/mL).
Compound `C=CCOC(C)=O` yielded a solubility of 280 mM (≈ 28000 µg/mL).
In the case of `C=COCC(C)C`, the solubility came out at 30 mM (≈ 3000 µg/mL).

The data set is the same for the next values; noted with them: 23 °C.
Compound `CCC(C#N)CC#N` (centres undefined) yielded a solubility of 203 mM (≈ 22000 µg/mL).
Same read-out and setting: next, `CN(N=O)C(N)=O`: 140 mM (≈ 14400 µg/mL).

The same data set, now with this note: 23.0 °C.
In turn, `CCOCCOCCO` came in with a log10 OH rate constant (cm³/molecule/s) of -10.2.
In the case of `CCC(=O)C(O)CC` (centres undefined), the log10 OH rate constant (cm³/molecule/s) is -10.8.
Consider `CC1=CC[C@@]23CC1C(C)(C)[C@@H]2CC[C@H]3C`, for which the log10 OH rate constant (cm³/molecule/s) is -10.2.
Same read-out and setting: as for `CC(=O)C(C)(C)O`, the figure is -12.

The data set is the same for the next values; noted with them: 24 °C.
In turn, `CC1CN(N=O)CC(C)O1` (centres undefined) showed a solubility of 860 mM (≈ 124000 µg/mL).

The same data set, now with this note: 24.0 °C.
Turning to `C[Si](C)(C)C`, the log10 OH rate constant (cm³/molecule/s) is -12.

The data set is the same for the next values; noted with them: 25 °C.
Turning to `COc1ccccc1OCC(O)CO` (centres undefined), the solubility is 252 mM (≈ 50000 µg/mL).
Still for that read-out and setting: next, `C=C(C)C(=O)OCC(C)C`: 9.14 mM (≈ 1300 µg/mL).
On the same count and under the same terms, next, `ClCc1ccccc1`: 4.15 mM (≈ 525 µg/mL); `CC(C)NC(C)C`: 1090 mM (≈ 110000 µg/mL).
`CC=CC#N` had a solubility of 373 mM (≈ 25000 µg/mL).
For the compound `Clc1cc(Cl)c(-c2ccccc2Cl)cc1Cl`, the solubility came to 5.62e-05 mM (≈ 0.0164 µg/mL).
The compound `CCCCC(=O)O[C@]1(C(=O)CO)[C@@H](C)C[C@H]2[C@@H]3CCC4=CC(=O)C=C[C@]4(C)[C@@]3(F)[C@@H](O)C[C@@]21C` yielded a solubility of 0.0195 mM (≈ 9.29 µg/mL).
Same read-out and setting: as for `c1ccc2c(c1)cc1ccc3cccc4ccc2c1c34`, the figure is 6.42e-06 mM (≈ 0.00162 µg/mL); as for `O=C1CCC(N2C(=O)c3ccccc3C2=O)C(=O)N1` (centres undefined), 2.11 mM (≈ 545 µg/mL).
Same read-out and setting: next, `Oc1ccc(N=Nc2ccc(N=Nc3ccccc3)c3ccccc23)cc1`: 0.000979 mM (≈ 0.345 µg/mL); `CCCCO[N+](=O)[O-]`: 9.4 mM (≈ 1120 µg/mL).
Turning to `O=C1CCO1`, the solubility was found to be 5130 mM (≈ 370000 µg/mL).
The same measure, in the same setting: as for `ClC1=C(Cl)C2(Cl)C3C(Cl)C(Cl)CC3C1(Cl)C2(Cl)Cl` (centres undefined), the figure is 0.000137 mM (≈ 0.056 µg/mL); as for `Oc1cc(Cl)c(Cl)cc1Cl`, 6.08 mM (≈ 1200 µg/mL).
Still for that read-out and setting: next, `Cc1cccc(C)c1N`: 68 mM (≈ 8240 µg/mL); `Cc1ccccc1C(C)C`: 0.174 mM (≈ 23.3 µg/mL).
The same measure, in the same setting: next, `CCC(CO)(CO)COCC(CC)(CO)CO`: 104 mM (≈ 26000 µg/mL); `Clc1ccc(/N=N/c2ccccc2)cc1`: 0.00198 mM (≈ 0.43 µg/mL).
As for `CCCOC(=O)COc1ccc(Cl)cc1Cl`, the solubility stood at 0.0562 mM (≈ 14.8 µg/mL).
Consider `CC1(C)[C@H]2CC[C@](C)(C2)[C@H]1O`, for which the solubility was 5.37 mM (≈ 828 µg/mL).
Same read-out and setting: next, `c1ccc2c(c1)ccc1c3ccccc3ccc21`: 8.76e-06 mM (≈ 0.002 µg/mL).

Staying with this data set, now noted: 25.0 °C.
`C=C1CCC2(C(C)C)CC12` (centres undefined) returned a log10 OH rate constant (cm³/molecule/s) of -9.93.
`FC(F)OC(F)F` returned a log10 OH rate constant (cm³/molecule/s) of -14.5.
Same read-out and setting: next, `COC(=O)C(C)O` (centres undefined): -11.6; `O=CC(F)(F)Cl`: -12.1; `CCCN(CCC)C(=O)SCC`: -10.5.
The same measure, in the same setting: next, `CC(=O)O[C@@H]1CC2CCC1(C)C2(C)C` (some centres undefined): -10.9; `C=COC(C)=O`: -10.6.
Turning to `ClCBr`, the log10 OH rate constant (cm³/molecule/s) is -13.1.
Compound `C=CCOC(C)=O` gave a log10 OH rate constant (cm³/molecule/s) of -10.6.
For the compound `FC(F)(F)C(F)(F)C(F)(F)C(F)(F)N(C(F)(F)C(F)(F)C(F)(F)C(F)(F)F)C(F)(F)C(F)(F)C(F)(F)C(F)(F)F`, the log10 OH rate constant (cm³/molecule/s) is under -16.2.
With `FC(F)OC(F)C(F)(F)F` (centres undefined), the log10 OH rate constant (cm³/molecule/s) is -14.4.
Compound `CCOCC=O` displayed a log10 OH rate constant (cm³/molecule/s) of -10.8.

The same data set, now with this note: 27.0 °C.
Turning to `CCC(=O)N(C)C`, the log10 OH rate constant (cm³/molecule/s) is -10.7.

Staying with this data set, now noted: 30 °C.
As to `ClC(Cl)c1ccccc1`, the solubility worked out at 1.55 mM (≈ 250 µg/mL).

Staying with this data set, now noted: pH 7.4.
The term logD denotes lipophilicity at a set pH, counting ionised and neutral species. High values mean a more lipophilic compound, low ones a more hydrophilic compound. The compound `N[C@@H](Cc1ccc(N(CCCl)CCCl)cc1)C(=O)O` came in with a logD of -0.52.
